# Measurements taken from US20040024055A1, “Pharmaceutical composition containing the exract of saururus chinensis baill useful as an anticancer agent and a process for the preparation thereof” (priority 2000, published 2004).
# Columns and labels:
# T-47D = experiment: MTT analysis, anticancer activity; format: cell-based, human; settings: 48 hr
# MCF-7 = experiment: MTT analysis, anticancer activity; format: cell-based, human
# T98G = experiment: MTT analysis, anticancer activity; format: cell-based, human; settings: 48 hr
# 293 = experiment: MTT analysis, cytotoxicity against normal cell line; format: cell-based, human; settings: 10 μg/ml sample
# KATO-III = experiment: MTT analysis, anticancer activity; format: cell-based, human
# BT-20 = experiment: MTT analysis, anticancer activity; format: cell-based, human; settings: 48 hr
# SK-OV-3 = experiment: MTT analysis, anticancer activity; format: cell-based, human; settings: 10 μg/ml sample
# [1] = test system: DU-145 prostate cancer cell line; experiment: MTT analysis, anticancer activity; format: cell-based, human; settings: 48 hr
# Procedure: (§1) To be specific, SK-Hep-1 cell, which is liver cancer cell line, was added to 96-well microplate (Falcon, USA) with the concentration of 3×10^5 cells/ml by 100 μl per well. Each extracted and separated substance dissolved in DMSO was added to the well by 100 μl for the final concentration to be from 50 μg/ml to 0.0244 μg/ml, with 200 μl of final volume. Each cell was cultured for 48 hr in a culture medium of 37° C. and 5% CO2. After cultivation, 20 μl of phosphate buffer solution containing 5 mg/ml of MTT (3-[4,5-dimethylthiazol-2-yl]-2,5-diphenyltetrazoliumbromide, Sigma Co.) reagent was added to each well, and then cultured for 4 hr. After taking 100 μl of supernant from each culture medium, 100 μl of 0.04N hydrochloric acid-isopropanol was added. After letting alone overnight, absorbance was measured at 560 nm using automatic Eliza detector (Molecular Divices Corp., USA). Anticancer activity of each extracted and separated substance was calculated from the absorbance value by Equation 1 and was expressed in terms of cell.
# (§2) Average Existence Rate(%)=(Absorbance of Treated Group)/(Absorbance of Control Group)×100
# [2] = test system: PC-3 prostate cancer cell line; experiment: MTT analysis, anticancer activity; format: cell-based, human; settings: 48 hr
# HeLa = experiment: MTT analysis, anticancer activity; format: cell-based, human; settings: 48 hr
# HS-578T = experiment: MTT analysis, anticancer activity; format: cell-based, human; settings: 10 μg/ml sample
# BT-549 = experiment: MTT analysis, anticancer activity; format: cell-based, human; settings: 10 μg/ml sample
# SK-MEL-28 = experiment: MTT analysis, anticancer activity; format: cell-based, human; settings: 48 hr
# Solubility = format: physicochemical
# NIH-3T3 = experiment: MTT analysis, cytotoxicity against normal cell line; format: cell-based, mouse; settings: 10 μg/ml sample
# CHO = experiment: as above; format: cell-based, Chinese hamster; settings: 10 μg/ml sample
# HT-29 = experiment: MTT analysis, anticancer activity; format: cell-based, human; settings: 10 μg/ml sample
# HS27 = experiment: MTT analysis, cytotoxicity against normal cell line; format: cell-based, human; settings: 10 μg/ml sample
# HS-746T = experiment: MTT analysis, anticancer activity; format: cell-based, human; settings: 10 μg/ml sample
# 3T3-L1 = experiment: MTT analysis, cytotoxicity against normal cell line; format: cell-based, mouse; settings: 10 μg/ml sample
# NCI-H69 = experiment: MTT analysis, anticancer activity; format: cell-based, human; settings: 10 μg/ml sample
# A431 = experiment: MTT analysis, anticancer activity; format: cell-based, human; settings: 48 hr
# HT1080 = experiment: MTT analysis, anticancer activity; format: cell-based, human; settings: 48 hr
# CPAE = experiment: MTT analysis, cytotoxicity against normal cell line; format: cell-based, bovine; settings: 10 μg/ml sample
# SK-N-SH = experiment: MTT analysis, anticancer activity; format: cell-based, human; settings: 48 hr
# LoVo = experiment: MTT analysis, anticancer activity; format: cell-based, human; settings: 10 μg/ml sample
# [3] = test system: SK-Hep-1 liver cancer cell line; experiment: MTT analysis, anticancer activity; format: cell-based, human; settings: for IC50 SK-Hep-1: 48 hr
# Procedure: as §1, §2
# Hep-2 = experiment: MTT analysis, anticancer activity; format: cell-based, human
# SK-BR-3 = experiment: MTT analysis, anticancer activity; format: cell-based, human; settings: 48 hr
# HS683 = experiment: MTT analysis, anticancer activity; format: cell-based, human; settings: 48 hr
# ME-180 = experiment: MTT analysis, anticancer activity; format: cell-based, human; settings: 10 μg/ml sample
SMILES,IC50 T-47D (T-47D),IC50 T98G (T98G),"Existence rate class, 293 (in IC50 table) 293",IC50 BT-20 (BT-20),"Existence rate class, SK-OV-3 (in IC50 table) (SK-OV-3)",IC50 DU-145 [1],IC50 PC-3 [2],IC50 HeLa (HeLa),"Existence rate class, HS-578T (in IC50 table) (HS-578T)","Existence rate class, BT-549 (in IC50 table) (BT-549)",IC50 SK-MEL-28 (SK-MEL-28),"Solubility in methanol, ethanol, ethyl acetate, chloroform and dimethylsulfoxide (DMSO) (Solubility)","Solubility in water, acetone, ether and hexane (Solubility)","Existence rate class, NIH-3T3 (in IC50 table) (NIH-3T3)","Existence rate class, CHO (in IC50 table) (CHO)","Existence rate class, HT-29 (in IC50 table) (HT-29)","Existence rate class, HS27 (in IC50 table) (HS27)","Existence rate class, HS-746T (in IC50 table) (HS-746T)","Existence rate class, 3T3-L1 (in IC50 table) (3T3-L1)","Existence rate class, NCI-H69 (in IC50 table) (NCI-H69)",other results
"COc1ccc(C(O)C(C)Oc2ccc(C3OC(c4ccc(OC(C)[C@@H](O)c5ccc(OC)c(OC)c5)c(OC)c4)C(C)C3C)cc2OC)cc1OC (single isomer, unassigned) [HNP-98701B]",0.0167 mg/L,0.1003 mg/L,* (Existence rate larger than 60% for 10 μg/ml sample),0.0292 mg/L,N.E. (Not effective; existence rate larger than 90% for 10 μg/ml sample),0.0184 mg/L,0.0695 mg/L,0.1680 mg/L,N.E. (Not effective; existence rate larger than 90% for 10 μg/ml sample),* (Existence rate larger than 60% for 10 μg/ml sample),0.1123 mg/L,highly soluble,insoluble,N.E. (Not effective; existence rate larger than 90% for 10 μg/ml sample),* (Existence rate larger than 60% for 10 μg/ml sample),* (Existence rate larger than 60% for 10 μg/ml sample),N.E. (Not effective; existence rate larger than 90% for 10 μg/ml sample),* (Existence rate larger than 60% for 10 μg/ml sample),N.E. (Not effective; existence rate larger than 90% for 10 μg/ml sample),* (Existence rate larger than 60% for 10 μg/ml sample),"IC50 MCF-7 (MCF-7; MTT, 48 hr): >10 mg/L; IC50 KATO-III (KATO-III; MTT, 48 hr): 0.4477 mg/L; IC50 A431 (A431): 0.2344 mg/L; IC50 HT1080 (HT1080): 0.1882 mg/L; Existence rate class, CPAE (in IC50 table) (CPAE): * (Existence rate larger than 60% for 10 μg/ml sample); IC50 SK-N-SH (SK-N-SH): 0.4314 mg/L; Existence rate class, LoVo (in IC50 table) (LoVo): * (Existence rate larger than 60% for 10 μg/ml sample); IC50 SK-Hep-1 [3]: 0.0388 mg/L; IC50 Hep-2 (Hep-2; MTT, 48 hr): 0.0329 mg/L; IC50 SK-BR-3 (SK-BR-3): 0.0866 mg/L; IC50 HS683 (HS683): 0.2325 mg/L; Existence rate class, ME-180 (in IC50 table) (ME-180): * (Existence rate larger than 60% for 10 μg/ml sample)"
"COc1ccc(C(O)C(C)Oc2ccc(C3OC(c4ccc(OC(C)[C@@H](O)c5ccc(OC)c(OC)c5)c(OC)c4)C(C)C3C)cc2OC)cc1OC (single isomer, unassigned) [HNP-98701A, epi-manassantin A]",0.0400 mg/L,0.2470 mg/L,*^a (Existence rate larger than 60% for 10 μg/ml sample),0.0996 mg/L,N.E. (Not effective; existence rate larger than 90% for 10 μg/ml sample),0.0537 mg/L,0.1249 mg/L,0.4233 mg/L,N.E.^b (Not effective; existence rate larger than 90% for 10 μg/ml sample),*^a (Existence rate larger than 60% for 10 μg/ml sample),0.2544 mg/L,highly soluble,insoluble,N.E. (Not effective; existence rate larger than 90% for 10 μg/ml sample),* (Existence rate larger than 60% for 10 μg/ml sample),* (Existence rate larger than 60% for 10 μg/ml sample),N.E. (Not effective; existence rate larger than 90% for 10 μg/ml sample),* (Existence rate larger than 60% for 10 μg/ml sample),N.E.^b (Not effective; existence rate larger than 90% for 10 μg/ml sample),* (Existence rate larger than 60% for 10 μg/ml sample),"IC50 (MCF-7; Homo sapiens, MCF7, 48 h, read-out: IC50 MCF-7): > 10 mg/L; IC50 (KATO-III; Homo sapiens, KATO III, 48 h, read-out: IC50 KATO-III, MTT, 48 hr): 0.617 mg/L; IC50 A431 (A431): 0.4903 mg/L; IC50 HT1080 (HT1080): 0.4267 mg/L; Existence rate class, CPAE (in IC50 table) (CPAE): * (Existence rate larger than 60% for 10 μg/ml sample); IC50 SK-N-SH (SK-N-SH): 1.2849 mg/L; Existence rate class, LoVo (in IC50 table) (LoVo): * (Existence rate larger than 60% for 10 μg/ml sample); IC50 SK-Hep-1 [3]: 0.0795 mg/L; IC50 (Hep-2; Homo sapiens, HEp-2, 48 h, read-out: IC50 Hep-2, MTT, 48 hr): 0.0406 mg/L; IC50 SK-BR-3 (SK-BR-3): 0.1698 mg/L; IC50 HS683 (HS683): 0.5561 mg/L; Existence rate class, ME-180 (in IC50 table) (ME-180): * (Existence rate larger than 60% for 10 μg/ml sample)"
"O=c1[nH]cc(F)c(=O)[nH]1 [5-FU, 5-fluorouracil]",–,–,–,–,–,–,–,–,–,–,–,–,–,–,–,–,–,–,–,–,"IC50 ([3]; Homo sapiens, SK-HEP1, 48 hr): > 50 mg/L"
